Reference: ChEMBL document CHEMBL1201862, “PubChem BioAssay data set” (2004)
The source made the active and inactive calls.

Experiments:
[1] = test system: T-cell; experiment: loss of vesicle association with mouse CD8+ T cells – mouse 2C CD8+ T cells, flow cytometry, dose response (AID 485284); assay type: functional
[2] = luciferase reporter signal suppression in cells – H4 neuroglioma cells, luminescence, dose response (AID 1990); assay type: functional, cell-based
[3] = test system: BJ; experiment: BJ-TERT fibroblast viability loss – cell-based, RAS-independent, luminescence, dose response (AID 1933); assay type: functional; conditions: Homo sapiens
[4] = Luminescence Cell-Based Dose Response HTS to Identify Inhibitors of 5'UTR Stem-Loop Driven Prion Protein mRNA Translation in H4 Neuroglioblastoma Cells. [Related pubchem assays: 1827 (Project Summary), 1813 (Primary HTS)]; assay type: functional
[5] = test system: BJ; experiment: cells; assay type: functional, cell-based; conditions: Homo sapiens
[6] = test system: BJ; experiment: BJ-TERT-LT-ST fibroblast viability loss – cell-based, RAS-independent, luminescence, dose response (AID 1935); assay type: functional; conditions: Homo sapiens;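 further: BJ fibroblasts immortalized with TERT plus LT and ST oncogenes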
[7] = DRD fibroblast viability loss – cell-based, non-viral oncogenic, luminescence, dose response (AID 1934); assay type: functional; conditions: Homo sapiens
[8] = Intein inhibitors as potential Tuberculosis drugs, a cytotoxicity screen. [Related pubchem assays (depositor defined):AID2221, AID2223, AID434968, AID435010, AID449749, AID449750, AID489010]; assay type: functional
[9] = target: T1, Replicative DNA helicase DnaB (Mycobacterium tuberculosis, UniProt P9WMR3); experiment: DnaB intein splicing inhibitors, dose response, biochemical, cell-free fluorescence (AID 449749); assay type: functional
T1 sequence (P9WMR3 whole entry): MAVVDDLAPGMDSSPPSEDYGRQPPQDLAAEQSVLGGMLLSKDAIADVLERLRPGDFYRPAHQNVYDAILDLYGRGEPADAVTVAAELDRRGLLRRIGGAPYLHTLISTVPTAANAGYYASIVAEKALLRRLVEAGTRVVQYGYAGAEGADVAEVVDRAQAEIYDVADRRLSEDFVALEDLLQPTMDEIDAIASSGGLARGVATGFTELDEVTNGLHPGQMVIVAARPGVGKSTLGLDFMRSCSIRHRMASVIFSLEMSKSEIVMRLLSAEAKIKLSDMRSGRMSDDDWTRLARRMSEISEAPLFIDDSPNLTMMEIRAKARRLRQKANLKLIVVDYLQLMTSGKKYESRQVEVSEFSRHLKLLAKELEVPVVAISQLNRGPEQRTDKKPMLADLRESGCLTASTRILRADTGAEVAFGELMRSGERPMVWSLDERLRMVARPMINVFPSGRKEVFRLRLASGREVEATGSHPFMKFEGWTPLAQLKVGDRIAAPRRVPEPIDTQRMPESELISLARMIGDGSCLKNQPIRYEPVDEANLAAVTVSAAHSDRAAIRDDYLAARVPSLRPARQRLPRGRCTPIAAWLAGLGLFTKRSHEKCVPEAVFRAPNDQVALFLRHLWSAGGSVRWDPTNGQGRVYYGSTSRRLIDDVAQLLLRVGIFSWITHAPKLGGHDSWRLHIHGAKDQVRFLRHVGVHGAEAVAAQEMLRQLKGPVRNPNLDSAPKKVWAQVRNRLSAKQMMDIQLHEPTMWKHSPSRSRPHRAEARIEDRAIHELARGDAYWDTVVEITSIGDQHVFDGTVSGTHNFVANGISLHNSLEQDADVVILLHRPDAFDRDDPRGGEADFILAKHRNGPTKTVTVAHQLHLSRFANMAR

[10] = target: T2, Apoptotic protease-activating factor 1 (Homo sapiens, UniProt O14727); assay type: functional
T2 sequence (O14727 whole entry): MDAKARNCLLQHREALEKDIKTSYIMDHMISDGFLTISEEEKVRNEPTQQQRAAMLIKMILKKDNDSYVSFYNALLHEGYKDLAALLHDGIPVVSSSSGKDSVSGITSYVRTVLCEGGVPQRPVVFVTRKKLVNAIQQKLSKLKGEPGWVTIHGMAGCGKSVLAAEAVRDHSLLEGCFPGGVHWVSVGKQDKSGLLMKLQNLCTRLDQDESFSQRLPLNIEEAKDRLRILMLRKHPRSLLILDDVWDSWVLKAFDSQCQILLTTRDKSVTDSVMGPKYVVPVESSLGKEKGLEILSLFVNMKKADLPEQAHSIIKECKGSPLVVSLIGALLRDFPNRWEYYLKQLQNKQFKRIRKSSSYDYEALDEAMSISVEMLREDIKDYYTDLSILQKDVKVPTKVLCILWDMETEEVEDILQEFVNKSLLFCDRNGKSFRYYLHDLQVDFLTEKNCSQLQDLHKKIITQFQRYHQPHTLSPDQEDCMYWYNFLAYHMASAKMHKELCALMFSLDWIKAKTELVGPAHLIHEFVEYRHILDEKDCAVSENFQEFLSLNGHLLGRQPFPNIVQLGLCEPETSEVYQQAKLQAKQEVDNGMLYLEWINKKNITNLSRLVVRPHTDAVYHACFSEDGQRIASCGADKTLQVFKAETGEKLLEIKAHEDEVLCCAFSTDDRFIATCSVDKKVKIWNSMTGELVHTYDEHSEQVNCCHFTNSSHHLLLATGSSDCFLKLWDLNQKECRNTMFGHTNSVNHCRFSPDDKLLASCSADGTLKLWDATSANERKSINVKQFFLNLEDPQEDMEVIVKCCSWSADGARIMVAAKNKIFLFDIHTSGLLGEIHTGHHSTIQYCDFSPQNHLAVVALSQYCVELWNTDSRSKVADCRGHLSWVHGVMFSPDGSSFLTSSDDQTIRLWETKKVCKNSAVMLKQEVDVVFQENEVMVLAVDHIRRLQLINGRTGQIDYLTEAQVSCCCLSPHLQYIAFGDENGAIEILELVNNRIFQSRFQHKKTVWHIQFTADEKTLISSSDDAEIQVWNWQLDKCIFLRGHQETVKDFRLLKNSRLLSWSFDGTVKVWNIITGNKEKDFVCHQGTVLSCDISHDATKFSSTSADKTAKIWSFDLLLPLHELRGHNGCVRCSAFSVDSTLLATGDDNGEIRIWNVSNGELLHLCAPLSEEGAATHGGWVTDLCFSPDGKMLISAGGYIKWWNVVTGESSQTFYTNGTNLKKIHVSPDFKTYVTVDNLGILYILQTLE

[11] = target: T3, Protein RecA (Mycobacterium tuberculosis, UniProt P9WHJ3); experiment: Fluorescence Cell-Free Homogeneous Dose Retest to Identify Inhibitors of RecA-Intein Splicing Activity. [Related pubchem assays (depositor defined):AID2097, AID2223, AID489010, AID492950]; assay type: functional
T3 sequence (P9WHJ3 whole entry): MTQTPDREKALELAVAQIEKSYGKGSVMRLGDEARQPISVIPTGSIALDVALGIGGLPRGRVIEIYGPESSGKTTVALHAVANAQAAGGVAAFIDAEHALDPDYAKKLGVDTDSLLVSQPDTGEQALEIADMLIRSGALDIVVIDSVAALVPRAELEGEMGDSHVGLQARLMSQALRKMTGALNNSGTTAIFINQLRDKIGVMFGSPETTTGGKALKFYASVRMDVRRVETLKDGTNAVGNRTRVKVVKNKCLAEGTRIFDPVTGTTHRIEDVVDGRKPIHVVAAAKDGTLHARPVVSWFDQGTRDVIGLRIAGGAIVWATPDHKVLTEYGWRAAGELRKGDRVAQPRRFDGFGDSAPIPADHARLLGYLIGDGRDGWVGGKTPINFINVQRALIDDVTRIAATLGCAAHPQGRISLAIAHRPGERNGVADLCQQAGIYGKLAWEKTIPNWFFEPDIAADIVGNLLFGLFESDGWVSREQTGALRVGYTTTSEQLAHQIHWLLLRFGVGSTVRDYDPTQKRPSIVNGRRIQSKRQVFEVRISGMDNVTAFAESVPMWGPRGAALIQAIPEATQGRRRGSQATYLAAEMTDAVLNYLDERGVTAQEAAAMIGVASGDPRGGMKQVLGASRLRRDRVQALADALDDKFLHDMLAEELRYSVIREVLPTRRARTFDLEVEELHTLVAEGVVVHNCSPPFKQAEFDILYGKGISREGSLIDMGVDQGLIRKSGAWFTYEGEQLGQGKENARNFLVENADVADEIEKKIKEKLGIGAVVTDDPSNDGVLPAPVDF

[12] = test system: INS1; experiment: INS-1E survival protection against cytokine death – cell-based, luminescence, retest, dose response (AID 449756); assay type: functional; conditions: Rattus norvegicus;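 further: cell death triggered by IL-1 beta plus TNF-alpha plus IFN-gamma mixture; protective hits raise ATP signal compared with cytokine alone wells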
[13] = target: Mitochondrial peptide methionine sulfoxide reductase (Bos taurus, UniProt P54149); assay type: functional;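 further: absorbance read-out, biochemical high-throughput dose-response screen for MsrA inhibitors, confirmatory; recombinant bovine MsrA coupled to E. coli TrxB with NADPH and selenocystamine; potency is for inhibitors of MsrA activity on DMSO substrate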
[14] = target: Alkaline phosphatase, placental type (Homo sapiens, UniProt P05187); experiment: human placental alkaline phosphatase inhibition – biochemical, luminescence, confirmation (AID 1512); assay type: functional
[15] = target: Alkaline phosphatase, tissue-nonspecific isozyme (Homo sapiens, UniProt P05186); experiment: potency against alkaline phosphatase TNAP – biochemical, luminescent, dose response, SAR follow-up (AID 1056)
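Wherever CC50 is given: cells exposed to compound for 72 hours before luminescence readout.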

Sequence of Alkaline phosphatase, placental type (P05187 whole entry): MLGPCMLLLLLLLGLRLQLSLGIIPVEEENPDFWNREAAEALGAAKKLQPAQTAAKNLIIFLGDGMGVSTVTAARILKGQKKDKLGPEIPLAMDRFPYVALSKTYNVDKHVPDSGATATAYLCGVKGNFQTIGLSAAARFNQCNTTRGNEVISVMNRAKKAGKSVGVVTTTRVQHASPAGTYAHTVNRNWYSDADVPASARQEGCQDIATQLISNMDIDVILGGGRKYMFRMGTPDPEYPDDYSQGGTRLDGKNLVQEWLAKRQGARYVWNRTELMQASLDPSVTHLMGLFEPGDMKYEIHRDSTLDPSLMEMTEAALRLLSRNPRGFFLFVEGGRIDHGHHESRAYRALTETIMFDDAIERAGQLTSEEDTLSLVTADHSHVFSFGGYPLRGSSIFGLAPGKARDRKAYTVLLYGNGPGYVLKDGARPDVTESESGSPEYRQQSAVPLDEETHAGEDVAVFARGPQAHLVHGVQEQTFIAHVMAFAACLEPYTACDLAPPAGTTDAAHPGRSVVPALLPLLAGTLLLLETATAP
Sequence of Mitochondrial peptide methionine sulfoxide reductase (P54149 whole entry): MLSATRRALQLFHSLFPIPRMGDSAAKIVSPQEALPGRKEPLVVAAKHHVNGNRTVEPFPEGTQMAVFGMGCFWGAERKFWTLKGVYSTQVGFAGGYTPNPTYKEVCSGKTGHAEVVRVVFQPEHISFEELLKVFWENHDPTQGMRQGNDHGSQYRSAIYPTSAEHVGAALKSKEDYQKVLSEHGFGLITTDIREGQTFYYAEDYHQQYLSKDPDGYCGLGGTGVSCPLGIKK
Sequence of Alkaline phosphatase, tissue-nonspecific isozyme (P05186 whole entry): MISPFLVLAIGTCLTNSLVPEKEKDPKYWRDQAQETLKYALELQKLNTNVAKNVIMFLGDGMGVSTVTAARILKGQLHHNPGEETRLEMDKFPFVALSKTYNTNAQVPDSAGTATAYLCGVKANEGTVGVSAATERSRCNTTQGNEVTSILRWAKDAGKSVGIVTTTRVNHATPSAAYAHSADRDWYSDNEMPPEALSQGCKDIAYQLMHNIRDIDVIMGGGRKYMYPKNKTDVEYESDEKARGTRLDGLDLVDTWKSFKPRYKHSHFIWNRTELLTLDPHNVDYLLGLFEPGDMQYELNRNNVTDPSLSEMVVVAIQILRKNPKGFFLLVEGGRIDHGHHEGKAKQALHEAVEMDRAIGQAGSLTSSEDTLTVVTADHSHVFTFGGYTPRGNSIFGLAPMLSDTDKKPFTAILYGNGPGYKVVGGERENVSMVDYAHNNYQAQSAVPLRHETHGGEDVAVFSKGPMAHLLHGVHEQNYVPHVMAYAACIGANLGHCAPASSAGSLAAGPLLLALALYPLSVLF

Structure (SMILES): CCOc1ccccc1NC(=O)c1ccc(F)c(S(=O)(=O)N2CCC3(CC2)OCCO3)c1
- EC50 [1]: 16.4 µM (active)

Structure (SMILES): Cc1oc2c(c1C(=O)N1CCOCC1)C(=O)c1ccccc1C2=O
- EC50 [2]: 8.24 µM (active)
- EC50 [3]: 11.8 µM (active)
- EC50 [4]: 8.93 µM (active)
- EC50 [5]: 13.4 µM (active)
- EC50 [6]: > 75 µM (inconclusive)
- EC50 [7]: 10.5 µM (active)
- CC50 [8]: 6.26 µM (active)
- AC50 [9]: 1.41 µM (active)
- IC50 [10]: 13.9 µM (active)
- EC50 [11]: 506 nM (active)
- AC50 [12]: 2.45 µM (active)
- IC50 [13]: 64.3 µM (inactive)

Structure (SMILES): O=C(CNc1ccncc1)c1ccc(O)c(O)c1
- IC50 [14]: > 100 µM (inactive)
- IC50 [15]: > 100 µM (inactive)
